According to ChEMBL document CHEMBL1145593, “Design, synthesis and evaluation of potent thymidylate synthase X inhibitors” (Bioorg Med Chem Lett, 2008):
Activity calls are given as the source filed them. The calls are words filed in the database; no cut-off is given here.

How the values were obtained:
[1] = target: T1, Probable flavin-dependent thymidylate synthase (Paramecium bursaria Chlorella virus 1, UniProt O41156); experiment: Inhibition of PBCV1 Thymidylate synthase X
T1 sequence (O41156 whole entry): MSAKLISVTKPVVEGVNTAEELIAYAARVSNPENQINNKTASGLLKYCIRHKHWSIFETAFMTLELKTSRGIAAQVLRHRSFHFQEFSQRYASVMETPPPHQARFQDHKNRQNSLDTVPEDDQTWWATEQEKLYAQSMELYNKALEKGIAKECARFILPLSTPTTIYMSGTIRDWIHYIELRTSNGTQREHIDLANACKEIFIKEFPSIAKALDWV

[2] = target: T2, Probable flavin-dependent thymidylate synthase (Paramecium bursaria Chlorella virus 1) (UniProt O41156); experiment: Inhibition of PBCV1 Thymidylate synthase X in presence of triton X100 surfactant
T2 sequence (whole entry): T1 sequence (O41156 whole entry)

[3] = target: T2, Probable flavin-dependent thymidylate synthase (Paramecium bursaria Chlorella virus 1); experiment: Inhibition of PBCV1 Thymidylate synthase X in presence of bovine serum albumin surfactant
[4] = target: T2, Probable flavin-dependent thymidylate synthase (Paramecium bursaria Chlorella virus 1); experiment: Reversal of inhibition of PBCV1 Thy X at 20 uM in presence of dUMP

Ki [1]	Activity [2]	Activity [3]	IC50 [1]	Activity [4]	SMILES
3.5 µM					CCOC(=O)[C@@H]1CSC(c2ccccc2)N1C(=O)c1cn(CCCCCCCO)nn1 (stereo partly drawn)
0.13 µM	Active	Active	0.13 µM	Active	CCCCCCC(=O)N(CC(=O)O)C[C@@H]1CSC(c2ccccc2)N1C(=O)c1ccccc1 (stereo partly drawn)
2 µM					CCOC(=O)[C@@H]1CSC(c2ccccc2)N1C(=O)c1cn(CCc2ccc(F)cc2)nn1 (stereo partly drawn)
0.057 µM	Active	Active	0.057 µM	inactive	CCOC(=O)[C@@H]1CSC(c2ccccc2)N1C(=O)c1cn(CCCNC(=O)C(F)(F)F)nn1 (stereo partly drawn)
1 µM					CCOC(=O)[C@@H]1CSC(c2ccccc2)N1C(=O)c1cn(CCc2ccsc2)nn1 (stereo partly drawn)
